Test results published in USRE40086E1, “Method for treating bacterial infection with novel 7-substituted-9-substituted amino 6-demethyl-6-deoxytetracyclines” (Wyeth Holdings Corporation, priority 1991, dated 2008).
Read-outs that look alike come from different tables or passages of the source.

Experiments:
[1] = tested on: E. coli UBMS 89-2 (Sensitive); test: MIC, agar dilution; type: cell-based; details: E. coli UBMS 89-2 Tet Sens.; Table IA; unit assumed
[2] = tested on: E. coli UBMS 89-1 (tetM); test: MIC, agar dilution; type: cell-based; details: E. coli UBMS 89-1 TetM; Table IA; unit assumed
[3] = tested on: S. aureus IVES 2943 (meth. resistant); test: MIC, agar dilution; type: cell-based; details: S. aureus IVES 2943; Table IA; unit assumed
[4] = tested on: S. aureus UBMS 88-4 (Sensitive); test: MIC, agar dilution; type: cell-based; details: S. aureus UBMS 88-4; Table IA; unit assumed
[5] = tested on: S. aureus ROSE (MP); test: MIC, agar dilution (Table IA); type: cell-based; details: unit assumed
[6] = tested on: E. coli UBMS 90-5; test: MIC, agar dilution (Table IA); type: cell-based; details: unit assumed
[7] = tested on: X. maltophilia NEMC 87210; test: MIC, agar dilution (Table IA); type: cell-based; details: unit assumed
[8] = tested on: E. coli MC4100 TetB; test: MIC, agar dilution (Table IA); type: cell-based; details: unit assumed
[9] = tested on: E. coli UBMS 90-4 (tetM); test: MIC, agar dilution; type: cell-based; details: E. coli UBMS 90-4 TetM; Table IA; unit assumed
[10] = tested on: S. aureus ATCC 29213 (Sensitive); test: MIC, agar dilution; type: cell-based; details: S. aureus ATCC 29213; Table IA; unit assumed
[11] = tested on: S. aureus UBMS 88-7 (tetK); test: MIC, agar dilution; type: cell-based; details: S. aureus UBMS 88-7 TetK; Table IA; unit assumed
[12] = tested on: Ps. acruginosa ATCC 27853; test: MIC, agar dilution (Table IA); type: cell-based; details: unit assumed
[13] = tested on: E. coli J3272 TetC; test: MIC, agar dilution (Table IA); type: cell-based; details: unit assumed
[14] = tested on: S. aureus UBMS 90-1 (tetM); test: MIC, agar dilution; type: cell-based; details: S. aureus UBMS 90-1 TetM; Table IA; unit assumed
[15] = tested on: S. aureus UBMS 88-5 (tetM); test: MIC, agar dilution; type: cell-based; details: S. aureus UBMS 88-5 TetM; Table IA; unit assumed
[16] = tested on: E. coli J2175; test: MIC, agar dilution (Table IA); type: cell-based; details: unit assumed
[17] = tested on: E. coli #311 (MP); test: MIC, agar dilution (Table IA); type: cell-based; details: unit assumed
[18] = tested on: E. coli UBMS 88-1 (tetB); test: MIC, agar dilution; type: cell-based; details: E. coli UBMS 88-1 TetB; Table IA; unit assumed
[19] = tested on: S. aureus Smith (Sensitive); test: MIC, agar dilution; type: cell-based; details: S. aureus SMITH (MP); Table IA; unit assumed
[20] = tested on: E. faecalis ATCC 29212; test: MIC, agar dilution; type: cell-based; details: E. faecalis ATCC 29212; Table IA; unit assumed
[21] = tested on: S. mariescens FDOR 8733; test: MIC, agar dilution (Table IA); type: cell-based; details: unit assumed
[22] = tested on: E. coli BAJ9003; test: MIC, agar dilution (Table IA); type: cell-based
[23] = tested on: S. aureus UBMS 90-2 (tetM); test: MIC, agar dilution; type: cell-based; details: S. aureus UBMS 90-2 TetM; Table IA; unit assumed
[24] = tested on: S. aureus UBMS 90-3 (Sensitive); test: MIC, agar dilution; type: cell-based; details: S. aureus UBMS 90-3; Table IA; unit assumed
[25] = tested on: E. faecalis 12201; test: MIC, agar dilution; type: cell-based; details: Enterococcus 12201; Table IA; unit assumed
[26] = tested on: E. coli ATCC 25922; test: MIC, agar dilution; type: cell-based; details: E. coli ATCC 25922; Table IA; unit assumed
[27] = tested on: E. coli PRP1 TetA; test: MIC, agar dilution (Table IA); type: cell-based; details: unit assumed
[28] = tested on: S. aureus NEMC 8769/89-4; test: MIC, agar dilution (Table IA); type: cell-based; details: unit assumed
[29] = tested on: S. aureus SMITH (sens); test: In vivo antibacterial evaluation, acute lethal infection in mice; details: Oral
Description: In Vivo Antibacterial Evaluation (Table VII)

[30] = tested on: S. aureus IVES 1983 (meth. resistant); test: MIC, agar dilution; type: cell-based; details: S. aureus IVES 1983; Table IA; unit assumed
[31] = tested on: S. haemolyticus AVAH 88-3; test: MIC, agar dilution; type: cell-based; details: S. hemolyticus AVHAH 88-3; Table IA; unit assumed
[32] = tested on: E. coli MC4100 Tet sens.; test: MIC, agar dilution (Table IA); type: cell-based; details: unit assumed
[33] = tested on: E. coli J3272 TetD; test: MIC, agar dilution (Table IA); type: cell-based; details: unit assumed
[34] = tested on: E. coli J3272 Tet sens.; test: MIC, agar dilution (Table IA); type: cell-based; details: unit assumed

CC(C(=O)Nc1cc(N(C)C)c2c(c1O)C(=O)C1=C(O)C3(O)C(=O)C(C(N)=O)=C(O)C(N(C)C)C3CC1C2)N1CCCC1.Cl.Cl (stereo not drawn) [AAA, [7S-(7alpha,10aalpha)]-N-[9-(Aminocarbonyl)-4,7-bis(dimethylamino)-5,5a,6,6a,7,10,10a,12-octahydro-1,8,10a,11-tetrahydroxy-10,12-dioxo-2-naphthacenyl)-alpha-methyl-1-pyrrolidineacetamide dihydrochloride]
Antibacterial activity (MIC) [1]: 0.5 µg/mL | Antibacterial activity (MIC) [2]: 0.12 µg/mL | Antibacterial activity (MIC) [3]: 0.5 µg/mL | Antibacterial activity (MIC) [4]: 0.25 µg/mL | Antibacterial activity (MIC) [5]: 2 µg/mL | Antibacterial activity (MIC) [6]: 0.5 µg/mL | Antibacterial activity (MIC) [7]: 0.5 µg/mL | Antibacterial activity (MIC) [8]: 0.5 µg/mL | Antibacterial activity (MIC) [9]: 0.5 µg/mL | Antibacterial activity (MIC) [10]: 0.25 µg/mL | Antibacterial activity (MIC) [11]: 0.5 µg/mL | Antibacterial activity (MIC) [12]: > 32 µg/mL | Antibacterial activity (MIC) [13]: 0.5 µg/mL | Antibacterial activity (MIC) [14]: 0.5 µg/mL | Antibacterial activity (MIC) [15]: 0.25 µg/mL | Antibacterial activity (MIC) [16]: 0.5 µg/mL | Antibacterial activity (MIC) [17]: 0.25 µg/mL | Antibacterial activity (MIC) [18]: 0.5 µg/mL | Antibacterial activity (MIC) [19]: 0.25 µg/mL | Antibacterial activity (MIC) [20]: 0.12 µg/mL | Antibacterial activity (MIC) [21]: 4 µg/mL | Antibacterial activity (MIC) ([22]; unit assumed): 0.06 µg/mL | Antibacterial activity (MIC) [23]: 0.25 µg/mL | Antibacterial activity (MIC) [24]: 0.25 µg/mL | Antibacterial activity (MIC) [25]: 0.12 µg/mL | Antibacterial activity (MIC) [26]: 0.25 µg/mL | Antibacterial activity (MIC) [27]: 0.5 µg/mL | Antibacterial activity (MIC) [28]: 0.12 µg/mL | ED50 [29]: >16 mg/kg | Antibacterial activity (MIC) [30]: 0.5 µg/mL | Antibacterial activity (MIC) [31]: 0.5 µg/mL | Antibacterial activity (MIC) [32]: 0.12 µg/mL | Antibacterial activity (MIC) [33]: 0.12 µg/mL

CN(C)c1cc(NC(=O)CNCC(=O)O)c(O)c2c1CC1CC3C(N(C)C)C(O)=C(C(N)=O)C(=O)C3(O)C(O)=C1C2=O (stereo not shown) [KKK]
Antibacterial activity (MIC) [1]: > 32 µg/mL | Antibacterial activity (MIC) [2]: > 32 µg/mL | Antibacterial activity (MIC) [3]: > 32 µg/mL | Antibacterial activity (MIC) [4]: 32 µg/mL | Antibacterial activity (MIC) [5]: > 32 µg/mL | Antibacterial activity (MIC) [6]: > 32 µg/mL | Antibacterial activity (MIC) [7]: > 32 µg/mL | Antibacterial activity (MIC) [8]: > 32 µg/mL | Antibacterial activity (MIC) [9]: > 32 µg/mL | Antibacterial activity (MIC) [10]: 32 µg/mL | Antibacterial activity (MIC) [11]: > 32 µg/mL | Antibacterial activity (MIC) [12]: > 32 µg/mL | Antibacterial activity (MIC) [13]: > 32 µg/mL | Antibacterial activity (MIC) [14]: > 32 µg/mL | Antibacterial activity (MIC) [15]: > 32 µg/mL | Antibacterial activity (MIC) [16]: > 32 µg/mL | Antibacterial activity (MIC) [17]: > 32 µg/mL | Antibacterial activity (MIC) [18]: > 32 µg/mL | Antibacterial activity (MIC) [19]: 16 µg/mL | Antibacterial activity (MIC) [20]: 16 µg/mL | Antibacterial activity (MIC) [21]: > 32 µg/mL | Antibacterial activity (MIC) ([22]; unit assumed): 16 µg/mL | Antibacterial activity (MIC) [23]: 32 µg/mL | Antibacterial activity (MIC) [24]: 16 µg/mL | Antibacterial activity (MIC) [25]: > 32 µg/mL | Antibacterial activity (MIC) [26]: > 32 µg/mL | Antibacterial activity (MIC) [27]: > 32 µg/mL | Antibacterial activity (MIC) [28]: 32 µg/mL | Antibacterial activity (MIC) [30]: > 32 µg/mL | Antibacterial activity (MIC) [31]: > 32 µg/mL | Antibacterial activity (MIC) [34]: > 32 µg/mL | Antibacterial activity (MIC) [32]: 32 µg/mL | Antibacterial activity (MIC) [33]: > 32 µg/mL

CN(C)CC(=O)Nc1cc(N(C)C)c2c(c1O)C(=O)C1=C(O)[C@]3(O)C(=O)C(C(=O)NCN4CCCC4)=C(O)[C@@H](N(C)C)C3CC1C2 (stereo partly drawn) [FFF, [4S-(4alpha,12aalpha)]-4,7-Bis(dimethylamino)-9-[[(dimethylamino)acetyl]amino]-1,4,4a,5,5a,6,11,12a-octahydro-3,10,12,12a-tetrahydroxy-1,11-dioxo-N-(1-pyrrolidinylmethyl)-2-naphthacenecarboxamide]
Antibacterial activity (MIC) [1]: 0.25 µg/mL | Antibacterial activity (MIC) [2]: 0.12 µg/mL | Antibacterial activity (MIC) [3]: 2 µg/mL | Antibacterial activity (MIC) [4]: 0.12 µg/mL | Antibacterial activity (MIC) [5]: 2 µg/mL | Antibacterial activity (MIC) [6]: 0.25 µg/mL | Antibacterial activity (MIC) [7]: 0.25 µg/mL | Antibacterial activity (MIC) [8]: 0.25 µg/mL | Antibacterial activity (MIC) [9]: 0.12 µg/mL | Antibacterial activity (MIC) [10]: 0.12 µg/mL | Antibacterial activity (MIC) [11]: 1 µg/mL | Antibacterial activity (MIC) [12]: 8 µg/mL | Antibacterial activity (MIC) [13]: 1 µg/mL | Antibacterial activity (MIC) [14]: 0.12 µg/mL | Antibacterial activity (MIC) [15]: 0.12 µg/mL | Antibacterial activity (MIC) [16]: 0.25 µg/mL | Antibacterial activity (MIC) [17]: 0.25 µg/mL | Antibacterial activity (MIC) [18]: 0.25 µg/mL | Antibacterial activity (MIC) [19]: 0.12 µg/mL | Antibacterial activity (MIC) [20]: 0.06 µg/mL | Antibacterial activity (MIC) [21]: 4 µg/mL | Antibacterial activity (MIC) [22]: ≧0.015 | Antibacterial activity (MIC) [23]: 0.12 µg/mL | Antibacterial activity (MIC) [24]: 0.12 µg/mL | Antibacterial activity (MIC) [25]: 0.12 µg/mL | Antibacterial activity (MIC) [26]: 0.12 µg/mL | Antibacterial activity (MIC) [27]: 2 µg/mL | Antibacterial activity (MIC) [28]: 0.25 µg/mL | Antibacterial activity (MIC) [30]: 2 µg/mL | Antibacterial activity (MIC) [31]: 0.25 µg/mL | Antibacterial activity (MIC) [32]: 0.06 µg/mL | Antibacterial activity (MIC) [33]: 0.12 µg/mL

CCCCN(C)CC(=O)Nc1cc(N(C)C)c2c(c1O)C(=O)C1=C(O)C3(O)C(=O)C(C(N)=O)=C(O)C(N(C)C)C3CC1C2.Cl.Cl (stereo not drawn) [CCC, [4S-(4alpha,12aalpha)]-9-[[(Butylmethylamino)acetyl]amino]-4,7-Bis(dimethylamino)-1,4,4a,5,5a,6,11,12a-octahydro-3,10-12,12a-tetrahydroxy-1,11-dioxo-2-naphthacenecarboxamide dihydrochloride]
Antibacterial activity (MIC) [1]: 2 µg/mL | Antibacterial activity (MIC) [2]: 0.25 µg/mL | Antibacterial activity (MIC) [3]: 1 µg/mL | Antibacterial activity (MIC) [4]: 0.5 µg/mL | Antibacterial activity (MIC) [5]: 2 µg/mL | Antibacterial activity (MIC) [6]: 2 µg/mL | Antibacterial activity (MIC) [7]: 0.25 µg/mL | Antibacterial activity (MIC) [8]: 2 µg/mL | Antibacterial activity (MIC) [9]: 1 µg/mL | Antibacterial activity (MIC) [10]: 0.5 µg/mL | Antibacterial activity (MIC) [11]: 1 µg/mL | Antibacterial activity (MIC) [12]: > 32 µg/mL | Antibacterial activity (MIC) [13]: 1 µg/mL | Antibacterial activity (MIC) [14]: 1 µg/mL | Antibacterial activity (MIC) [15]: 0.5 µg/mL | Antibacterial activity (MIC) [16]: 2 µg/mL | Antibacterial activity (MIC) [17]: 1 µg/mL | Antibacterial activity (MIC) [18]: 1 µg/mL | Antibacterial activity (MIC) [19]: 0.5 µg/mL | Antibacterial activity (MIC) [20]: 0.12 µg/mL | Antibacterial activity (MIC) [21]: 16 µg/mL | Antibacterial activity (MIC) ([22]; unit assumed): 0.12 µg/mL | Antibacterial activity (MIC) [23]: 0.25 µg/mL | Antibacterial activity (MIC) [24]: 0.25 µg/mL | Antibacterial activity (MIC) [25]: 0.25 µg/mL | Antibacterial activity (MIC) [26]: 1 µg/mL | Antibacterial activity (MIC) [27]: 2 µg/mL | Antibacterial activity (MIC) [28]: 0.12 µg/mL | Antibacterial activity (MIC) [30]: 1 µg/mL | Antibacterial activity (MIC) [31]: 0.5 µg/mL | Antibacterial activity (MIC) [32]: 0.25 µg/mL | Antibacterial activity (MIC) [33]: 0.5 µg/mL
